Assay results reported in PubChem BioAssay (NCI).
Where “and” joins values, the source holds several entries; their conditions need not be identical. Equal entries are not always repeated.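 Results reflect a 48-hour exposure of cells in 96-well plates to compound at five concentrations. Here, GI50 denotes the concentration required for 50% inhibition of growth. TGI: total growth inhibition.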

Experiments:
Test in all cases: NCI-60 cell line screen, 48 h
NCI-H23 lung = tested on: NCI-H23 lung
SF-295 CNS = tested on: SF-295 CNS
PC-3 prostate = tested on: PC-3 prostate
KM12 colon = tested on: KM12 colon
786-0 renal = tested on: 786-0 renal
UACC-62 melanoma = tested on: UACC-62 melanoma
TK-10 renal = tested on: TK-10 renal
HOP-92 NSCLC = tested on: HOP-92 NSCLC
OVCAR-3 ovarian = tested on: OVCAR-3 ovarian
OVCAR-8 ovarian = tested on: OVCAR-8 ovarian

Compound	GI50 (NCI-H23 lung)	TGI (NCI-H23 lung)	GI50 (SF-295 CNS)	TGI (SF-295 CNS)	GI50 (PC-3 prostate)	TGI (PC-3 prostate)	GI50 (KM12 colon)	TGI (KM12 colon)	GI50 (786-0 renal)	TGI (786-0 renal)	GI50 (UACC-62 melanoma)	TGI (UACC-62 melanoma)	GI50 (TK-10 renal)	TGI (TK-10 renal)	GI50 (HOP-92 NSCLC)	TGI (HOP-92 NSCLC)	GI50 (OVCAR-3 ovarian)	TGI (OVCAR-3 ovarian)	GI50 (OVCAR-8 ovarian)	TGI (OVCAR-8 ovarian)
C/C(=N\Nc1ccc(Cl)cn1)c1ccc2ccccc2n1	3.55 µM	> 100 µM	3.06 µM	> 100 µM	3.44 µM	> 100 µM	3.15 µM	> 100 µM	2.44 µM	7.55 µM	3.25 µM	> 100 µM	6.31 µM	> 100 µM	2.25 µM	> 100 µM	0.545 µM	> 100 µM	3.04 µM	> 100 µM
O=C1/C(=C(/c2ccccc2)N2CCOCC2)Cc2ccccc21	2.64 µM	8.38 µM	12.2 µM	28 µM	1.64 µM	6.15 µM	2.22 µM	5.49 µM	1.98 µM	3.81 µM	1.79 µM	4.24 µM	1.29 µM	2.66 µM	1.24 µM	3.01 µM	0.479 µM	1.5 µM	3.9 µM	13.7 µM
COC(=O)Nc1nc2ccc(C3(c4ccc(F)cc4)OCCO3)cc2[nH]1	1.14 µM	> 100 µM	0.272 µM	> 100 µM	0.341 µM	> 100 µM	0.352 µM	> 100 µM	0.687 µM	> 100 µM	0.619 µM	> 100 µM	15.7 µM	> 100 µM	0.268 µM	58 µM	0.301 µM		0.527 µM	> 100 µM
CCOC(=O)C1CCN(S(=O)(=O)/N=C2/NC(=O)NC2=C(Cl)Cl)CC1	2.12 µM	4.38 µM	3.56 µM	14.1 µM	0.621 µM	2.58 µM	0.254 µM	10.5 µM	0.545 µM	6.64 µM	1.71 µM	3.27 µM	1.25 µM	> 100 µM	1.62 µM	3.29 µM	1.77 µM	3.29 µM	3.76 µM	19.9 µM
CCc1nc2cc(F)c(/C=C/C(=O)NO)cc2c(=O)n1CCc1ccccc1	0.375 µM	7.07 µM	0.234 µM	0.617 µM	0.526 µM	59.4 µM	0.412 µM	15 µM	0.309 µM	2.03 µM	0.235 µM	0.699 µM	0.256 µM	0.838 µM	0.33 µM	4.87 µM	0.323 µM	10.8 µM	0.287 µM	2.24 µM
COc1c2c(cc3c1OCO3)[C@]13C=C[C@H](OC)C[C@H]1N(C2)CC3O (some centres not stated)		> 100 µM		> 100 µM		> 100 µM		> 100 µM		> 100 µM		> 100 µM		> 100 µM		> 100 µM		> 100 µM		> 100 µM
CC12OC(C(=O)C13CC3)C1C(=O)c3ccc4c(ccc5ccccc54)c3C(=O)C12 (configuration not stated)	24.2 µM	> 100 µM			19 µM	80.7 µM	22.9 µM	59.5 µM	25.3 µM	> 100 µM			37.1 µM	> 100 µM	27.5 µM	> 100 µM			30.4 µM	> 100 µM
O=C(Nc1n[nH]c2cc(-c3ccccc3)ccc12)C1CC1	16.8 µM	> 25 µM	9.07 µM	> 25 µM	10.5 µM	> 25 µM	2.11 µM	> 25 µM	> 25 µM	> 25 µM	> 25 µM	> 25 µM	> 25 µM	> 25 µM	> 25 µM	> 25 µM	5.34 µM	16.9 µM	14.5 µM	> 25 µM
Cc1cc2nc(C=C(C(F)(F)F)C(F)(F)F)oc2cc1C		4.97 µM		> 10 µM		5.08 µM		> 10 µM		3.38 µM		> 10 µM		5.16 µM		> 10 µM		4.35 µM		6.68 µM
COc1cc2ncnc(-n3ncc4cc(NC(=O)Nc5ccccc5)ccc43)c2cc1OC	1.3 µM	4.4 µM	0.73 µM	5.87 µM	1.09 µM	3.36 µM	0.207 µM	5.27 µM	1.3 µM	4.34 µM	1.23 µM	6.27 µM	0.724 µM	2.56 µM	0.707 µM	4.15 µM	2.08 µM	13.1 µM	5.17 µM	28.3 µM
Cc1cc(C(=O)Nc2ccc3cc(CN4CCOCC4)ccc3n2)c(C)n1-c1ccccc1	0.974 µM	6.77 µM	1.99 µM	12.5 µM	1.34 µM	6.69 µM	1.68 µM	4.66 µM	4.75 µM	17.9 µM	1.38 µM	3.88 µM	4.75 µM	58.5 µM	2.15 µM	40.3 µM	1.58 µM	6.72 µM	1.21 µM	5.43 µM
COc1ccc(C2=C(Cl)c3cc(OC)c(OC)cc3C2Cl)cc1 (configuration not stated)		> 54.5 µM		34.1 µM		26.3 µM		26.4 µM		28.6 µM		31.4 µM		47.5 µM		30.3 µM		30.9 µM		50.6 µM
C=CCCCCC/C=C\[C@@H](O)C#CC#C/C=C/CO	43.6 µM	> 100 µM	> 100 µM	> 100 µM	28 µM	> 100 µM	77.5 µM	> 100 µM	> 100 µM	> 100 µM	> 100 µM	> 100 µM	> 100 µM	> 100 µM	> 100 µM	> 100 µM	41.7 µM	> 100 µM	25.1 µM	68.9 µM
C=C(C)[C@@H]1CC[C@]2(CO)CC[C@]3(C)[C@H](CC[C@@H]4[C@@]5(C)C=C(C#N)C(=O)C(C)(C)[C@@H]5CC[C@]43C)[C@@H]12	2 µM	6.05 µM	1.73 µM	3.96 µM	1.57 µM	5.42 µM			1.92 µM	3.98 µM	0.72 µM	2.44 µM	2.09 µM	6.06 µM	2.22 µM	5.15 µM	1.27 µM	2.73 µM	1.88 µM	5.24 µM
COc1ccc2c3c([nH]c2c1[N+](=O)[O-])C(C)N(C)CC3 (configuration not stated)		> 100 µM		> 100 µM				> 100 µM		> 100 µM		> 100 µM		> 100 µM		> 100 µM		> 100 µM		> 100 µM
CC1=CC(C)(C)N=C2SC(c3ccc(N)cc3)=NN12		> 100 µM		> 100 µM				> 100 µM		> 100 µM		> 100 µM		> 100 µM		> 100 µM		> 100 µM		> 100 µM
COc1cc2c3c(n(CCCN)c(=O)c2cc1OC)-c1ccc(C#N)cc1C3=O	9.02 µM	25.6 µM	11.1 µM	33.6 µM	15 µM	36.5 µM	4.88 µM	> 100 µM	4.43 µM	20.3 µM	17 µM	32.2 µM	16.9 µM	41.3 µM			19.1 µM	39.9 µM	5.54 µM	24.9 µM

Compound	GI50 (NCI-H23 lung)	TGI (NCI-H23 lung)	GI50 (SF-295 CNS)	TGI (SF-295 CNS)	GI50 (PC-3 prostate)	TGI (PC-3 prostate)	GI50 (KM12 colon)	TGI (KM12 colon)	GI50 (786-0 renal)	TGI (786-0 renal)	GI50 (UACC-62 melanoma)	TGI (UACC-62 melanoma)	GI50 (TK-10 renal)	TGI (TK-10 renal)	GI50 (HOP-92 NSCLC)	TGI (HOP-92 NSCLC)	GI50 (OVCAR-3 ovarian)	TGI (OVCAR-3 ovarian)	GI50 (OVCAR-8 ovarian)	TGI (OVCAR-8 ovarian)
O=C(O)CNS(=O)(=O)c1ccc(NC(=O)c2ccc([N+](=O)[O-])cc2)cc1		> 100 µM		> 100 µM				> 100 µM		> 100 µM		> 100 µM		> 100 µM		> 100 µM		> 100 µM		> 100 µM
COc1ccc(CN2CC(C)(C)C2=O)c(OC)c1		> 100 µM		> 100 µM				> 100 µM		> 100 µM		> 100 µM		> 100 µM		> 100 µM		> 100 µM		> 100 µM
O=C(CC(=O)n1nc(-c2ccccc2)c(N=Nc2ccc(Cl)cc2)c1-c1ccccc1)Nc1ccc(Cl)cc1		> 100 µM		> 100 µM				> 100 µM		> 61.1 µM		> 100 µM		> 100 µM		> 100 µM		> 100 µM		> 100 µM
O=C1c2cccnc2-c2nc(-c3ccc(Cl)cc3)cc3c2c1nc1ccccc13			22.9 µM	> 100 µM	47 µM	> 100 µM	41 µM	> 100 µM	12.8 µM	29.7 µM	76 µM	> 100 µM	24.6 µM	> 100 µM	22.9 µM	74.1 µM	24 µM	75 µM	98.4 µM	> 100 µM
Nc1ccccc1/C(O)=C1/CCOC1=O		> 100 µM		> 100 µM				> 100 µM		> 100 µM		> 100 µM		> 100 µM		> 100 µM		> 100 µM		> 100 µM
CCOC(=O)/C(C)=C(/O)C(=O)OCC		> 100 µM		> 100 µM				> 100 µM		> 100 µM		> 100 µM		> 100 µM		> 100 µM		> 100 µM		> 100 µM
Cn1cc(C2(C)CC(C)(C)c3c2n(C)c2ccccc32)c2ccccc21 (configuration not stated)		> 100 µM		> 100 µM				> 100 µM		> 100 µM		> 100 µM		> 100 µM		> 100 µM		> 100 µM		> 100 µM
O=S(=O)(c1ccc(NC(=S)NC23CC4CC(CC(C4)C2)C3)cc1)N1CCCCC1	3.5 µM	> 100 µM			2.55 µM	8.94 µM	3.65 µM	42.2 µM	4.14 µM	> 100 µM	3.22 µM	> 100 µM	3.27 µM	64.1 µM	1.63 µM	5 µM	3.51 µM	21.1 µM	3.22 µM	> 100 µM
c1cnn(CN(Cn2cccn2)Cn2cccn2)c1		> 100 µM		> 100 µM				> 100 µM		> 100 µM		> 100 µM		> 100 µM		> 100 µM		> 100 µM		> 100 µM
O=C(CCc1nc(=S)[nH][nH]1)Nc1ccccc1Cl		> 100 µM		> 100 µM				> 100 µM		> 100 µM		> 100 µM		> 100 µM		> 100 µM		> 100 µM		> 100 µM
Cc1cc2ncnn2cc1Nc1ncc2c(n1)n(C1CCOCC1)c(=O)n2C	14.3 µM	> 100 µM	4.98 µM	48 µM	2.73 µM	> 100 µM	14.5 µM	> 100 µM	8.29 µM	94.8 µM	3.5 µM	29.3 µM			2.01 µM	18.8 µM	6.22 µM	72 µM	11.5 µM	> 100 µM
COc1ccc(-c2nc3ccccn3c2/C=C/C(=O)c2cc(OC)c(OC)c(OC)c2)cc1OC	3.78 µM	> 100 µM	1.85 µM	4.42 µM	3.71 µM	> 100 µM	2.52 µM	11.4 µM	3.74 µM	71 µM	4.86 µM	22.1 µM	3.28 µM	8.74 µM			2.47 µM	8.56 µM	2.83 µM	11.1 µM
O=C(Nc1ccccc1-c1nc2ccccc2[nH]c1=O)c1ccccc1		> 100 µM		47.4 µM				> 100 µM		31 µM		75.2 µM		31.6 µM		51.4 µM		44 µM		66.1 µM
O=C(c1cccc2ccccc12)N1CCC(C2CCN(C(=O)c3cccc4ccccc34)CC2)CC1		> 100 µM		> 100 µM				> 100 µM		> 100 µM		> 100 µM		> 100 µM		> 100 µM		> 100 µM		> 100 µM
COc1cc(Cc2nccc3cc(OC)c(OC)cc23)c(C(C)=O)cc1OC	67.1 µM	300 µM and > 750 µM	224 µM	> 750 µM			106 µM	300 µM		> 750 µM		219 µM and > 750 µM		341 µM	99.3 µM and > 750 µM	267 µM and > 750 µM	86 µM and 27.7 µM	300 µM and 203 µM		3 µM
Cc1cc(NS(=O)(=O)c2ccc(Nc3c4ccccc4nc4c(C(=O)N5CCN(CCO)CC5)cccc34)cc2)no1		> 100 µM		> 100 µM				> 100 µM		> 100 µM		> 100 µM		> 100 µM		> 100 µM		> 100 µM		> 100 µM
